Experimental data published in PMC7318034, “Safety, Pharmacokinetics, and Drug-Drug Interaction Potential of Intravenous Durlobactam, a β-Lactamase Inhibitor, in Healthy Subjects” (Antimicrobial Agents and Chemotherapy, 2020).
Read-outs that look alike come from different tables or passages of the source.

Tests used:
clinical = settings: human, in vivo
Method: (§1) The blank control matrix was made up of human plasma (BioreclamationIVT) diluted 1:1 with SigmaFast (reconstituted protease inhibitor cocktail tablet [product S8820; Sigma-Aldrich, St. Louis, MO] in 10 ml of water) for preparation of calibration standards and QC samples. […] A 100-μl aliquot of the supernatant was transferred to 96-well plates. Samples were diluted further with 400 μl of water, and 5 μl of sample was injected into the LC-MS/MS system for analysis. […] The LLOQ for all analytes was 5 ng/ml.
(§2) AUC was calculated using the log-linear trapezoidal rule.
(§3) Pharmacokinetic parameters were summarized at each assessment time point using the mean ± standard deviation (SD), the percent coefficient of variation (CV), median, minimum, and maximum. Single-ascending-dose study data were assessed for dose proportionality using Cmax and AUC, and accumulation ratios was determined using repeat-dose cohorts. […] Noncompartmental analysis of PK parameters was performed using Phoenix WinNonlin (v6.4) software to determine PK parameters.

renal transporter OAT1 = biological target: T1, renal transporter OAT1 (Homo sapiens, UniProt Q4U2R8); experiment: In vitro assessment of transporter interactions; format: in vitro ADME; settings: data not published
T1 sequence (Q4U2R8 1-563): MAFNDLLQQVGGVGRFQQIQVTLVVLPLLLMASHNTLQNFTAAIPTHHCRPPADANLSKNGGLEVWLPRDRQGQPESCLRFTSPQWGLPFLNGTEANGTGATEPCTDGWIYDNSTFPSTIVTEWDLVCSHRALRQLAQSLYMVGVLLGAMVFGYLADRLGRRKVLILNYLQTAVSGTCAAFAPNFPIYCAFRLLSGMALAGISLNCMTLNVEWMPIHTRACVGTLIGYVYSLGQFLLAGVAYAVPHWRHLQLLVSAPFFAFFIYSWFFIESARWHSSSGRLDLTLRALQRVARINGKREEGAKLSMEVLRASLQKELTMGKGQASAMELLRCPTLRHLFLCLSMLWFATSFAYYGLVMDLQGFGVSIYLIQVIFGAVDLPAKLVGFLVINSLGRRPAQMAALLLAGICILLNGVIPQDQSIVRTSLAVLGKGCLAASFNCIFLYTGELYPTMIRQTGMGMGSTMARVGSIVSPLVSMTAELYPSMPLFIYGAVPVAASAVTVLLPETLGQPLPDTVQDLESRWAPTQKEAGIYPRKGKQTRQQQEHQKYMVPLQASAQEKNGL

[1] = Protein binding in human plasma; format: in vitro ADME
[2] = Safety and tolerability (adverse events, laboratory values, vital signs, ECG) in healthy subjects; format: in vivo, human
Method: A routine physical examination, determination of vital signs (supine blood pressure, heart rate, respiratory rate, temperature), a 12-lead electrocardiogram (ECG), and clinical laboratory testing (serum chemistry, hematology, urinalysis) were performed at screening, at intervals during the study, and at the 14-day follow-up.
The intent-to-treat (ITT) population included all randomized subjects. The safety population was all randomized subjects who received any study drug.

[3] = Part B multiple-ascending-dose plasma PK in healthy subjects; format: in vivo, human; settings: for Cmax / Tmax / AUC / clearance / half-life / Vd: human, plasma, iv; for AUC: read-out: AUC0–tau; for Vd: read-out: Vss
Method: This was a 4-part, double-blind, placebo-controlled study (15 cohorts) of DUR administered as a 3-h i.v. infusion (except for cohort 4, in which a 2-h i.v. infusion was evaluated) (see Table S5 in the supplemental material).
as §1, §2, §3

[4] = all subjects receiving the treatment
[5] = 0.25 g, part B cohort 9, 0.25 g q6h 3-h i.v. infusion, day 1
[6] = 0.25 g, part B cohort 9, 0.25 g q6h 3-h i.v. infusion, day 8
[7] = 0.5 g, part B cohort 10 (4 subjects), 0.5 g q6h 3-h i.v. infusion, day 1
[8] = 0.5 g, part B cohort 10 (4 subjects), 0.5 g q6h 3-h i.v. infusion, day 8
[9] = 1 g, part B cohort 11 (5 subjects), 1.0 g q6h 3-h i.v. infusion, day 1
[10] = 1 g, part B cohort 11 (5 subjects), 1.0 g q6h 3-h i.v. infusion, day 8
[11] = 2 g, part B cohort 12, 2.0 g q6h 3-h i.v. infusion, day 1
[12] = 2 g, part B cohort 12, 2.0 g q6h 3-h i.v. infusion, day 8
[13] = part B cohort 9, 0.25 g q6h 3-h i.v. infusion, day 8
[14] = part B cohort 10 (4 subjects), 0.5 g q6h 3-h i.v. infusion, day 8
[15] = part B cohort 11 (5 subjects), 1.0 g q6h 3-h i.v. infusion, day 8
[16] = part B cohort 12, 2.0 g q6h 3-h i.v. infusion, day 8

AUC0–24 (clinical): 104.4 ± 6.6 µg·h/mL | CL (clinical): 9.6 ± 0.6 L/h | Cmax (clinical): 26.9 ± 3.6 µg/mL | Vss (clinical): 17.6 ± 2.0 L | AUC(0-t) (clinical; AUC0–24): 106 ± 31.5 µg·h/mL | clearance (clinical; CL): 165 mL/min | Cmax (clinical; Cmax): 30 ± 9.2 µg/mL | Vd (clinical; Vss): 15.9 ± 2.6 L | half-life (clinical; t1/2): 108 ± 24 min | fraction unbound [1]: 0.1 | Cmax [3, 5]: 6900 ± 1400 ng/mL | Tmax ([3]; 0.25 g, part B cohort 9, 0.25 g q6h 3-h i.v. infusion, day 1, median): 3 h | AUC [3, 5]: 23100 ± 4900 ng·h/mL | Cmax [3, 6]: 7500 ± 1300 ng/mL | Tmax ([3]; 0.25 g, part B cohort 9, 0.25 g q6h 3-h i.v. infusion, day 8, median): 2.5 h | AUC [3, 6]: 26200 ± 5200 ng·h/mL | Cmax [3, 7]: 14900 ± 2200 ng/mL | Tmax ([3]; 0.5 g, part B cohort 10 (4 subjects), 0.5 g q6h 3-h i.v. infusion, day 1, median): 3 h | AUC [3, 7]: 50300 ± 9000 ng·h/mL | Cmax [3, 8]: 14800 ± 1100 ng/mL | Tmax ([3]; 0.5 g, part B cohort 10 (4 subjects), 0.5 g q6h 3-h i.v. infusion, day 8, median): 3 h | AUC [3, 8]: 53400 ± 4800 ng·h/mL | Cmax [3, 9]: 26900 ± 13100 ng/mL | Tmax ([3]; 1 g, part B cohort 11 (5 subjects), 1.0 g q6h 3-h i.v. infusion, day 1, median): 2.5 h | AUC [3, 9]: 79800 ± 35900 ng·h/mL | Cmax [3, 10]: 33400 ± 6000 ng/mL | Tmax ([3]; 1 g, part B cohort 11 (5 subjects), 1.0 g q6h 3-h i.v. infusion, day 8, median): 3 h | AUC [3, 10]: 109000 ± 13900 ng·h/mL | Cmax [3, 11]: 51900 ± 8000 ng/mL | Tmax ([3]; 2 g, part B cohort 12, 2.0 g q6h 3-h i.v. infusion, day 1, median): 3 h | AUC [3, 11]: 179000 ± 29900 ng·h/mL | Cmax [3, 12]: 53300 ± 7800 ng/mL | Tmax ([3]; 2 g, part B cohort 12, 2.0 g q6h 3-h i.v. infusion, day 8, median): 3 h | AUC [3, 12]: 193000 ± 31200 ng·h/mL | clearance [3, 13]: 163 mL/min | half-life [3, 13]: 114 ± 24 min | Vd [3, 13]: 18.5 ± 2.9 L | clearance [3, 14]: 157 mL/min | half-life [3, 14]: 156 ± 6 min | Vd [3, 14]: 18.1 ± 1.8 L | clearance [3, 15]: 155 mL/min | half-life [3, 15]: 210 ± 54 min | Vd [3, 15]: 17.2 ± 2 L | clearance [3, 16]: 177 mL/min | half-life [3, 16]: 606 ± 174 min | Vd [3, 16]: 21.8 ± 2 L | Accum. index [3, 13]: 1.1 ± 0.07 | Accum. index [3, 14]: 1.3 ± 0.01 | Accum. index [3, 15]: 1.5 ± 0.18 | Accum. index [3, 16]: 3.0 ± 0.69
SMILES: CC1=C[C@@H]2CN(C(=O)N2OS(=O)(=O)O)[C@@H]1C(N)=O [DUR, Durlobactam]
substrate of renal transporter OAT1 (renal transporter OAT1): affinity of the substrate for the renal transporter OAT1 | drug-related AE: catheter site phlebitis ([2]; DUR group, all subjects): 5.3% | drug-related AE: headache ([2]; DUR group, all subjects): 10.6% | treatment-emergent AE: catheter site phlebitis ([2]; DUR group, all subjects): 8.5% | treatment-emergent AE: headache ([2]; DUR group, all subjects): 13.8% | Drug-related AE: Abdominal pain [2, 4]: 0 No. (%) of subjects | Drug-related AE: Dizziness [2, 4]: 4 (4.3) No. (%) of subjects | Drug-related AE: Dysgeusia [2, 4]: 2 (2.1) No. (%) of subjects | Drug-related AE: Nasal congestion [2, 4]: 2 (2.1) No. (%) of subjects | Drug-related AE: Nausea [2, 4]: 2 (2.1) No. (%) of subjects | Drug-related AE: Pain in extremity [2, 4]: 1 (1.1) No. (%) of subjects | Drug-related AE: Phlebitis [2, 4]: 2 (2.1) No. (%) of subjects | Drug-related AE: Polydipsia [2, 4]: 0 No. (%) of subjects | Drug-related AE: Pruritus [2, 4]: 2 (2.1) No. (%) of subjects | Drug-related AE: Somnolence [2, 4]: 1 (1.1) No. (%) of subjects | Drug-related AE: Upper respiratory infection [2, 4]: 1 (1.1) No. (%) of subjects | Drug-related AE: Vulvovaginal candidiasis [2, 4]: 2 (2.1) No. (%) of subjects | drug-related AE: catheter site phlebitis [2, 4]: 5 (5.3) No. (%) of subjects | drug-related AE: headache [2, 4]: 10 (10.6) No. (%) of subjects | overall safety and tolerability ([2]; alone or with SUL and/or IMI-CIL): generally safe and well tolerated | changes in clinical laboratory values, vital signs, or ECG findings ([2]; any subject): No clinically significant changes
